In paper PMC11098091 (Nature chemical biology, 2022):

Experiments:
human μOR (GoB) = human μOR (GoB) (Homo sapiens, UniProt P35372); format: cell-based; conditions: read-out: potency at GoB
wild type human μOR [1] = molecular target: T1, wild type human μOR (Homo sapiens, UniProt P35372); format: cell-based
μOR Y326^7.43F mutant [2] = molecular target: T2, μOR Y326^7.43F mutant (Homo sapiens, UniProt P35372, Y328F); format: cell-based
human μOR (Gz) = human μOR (Gz) (Homo sapiens, UniProt P35372); format: cell-based; conditions: read-out: potency at Gz
Sequence of human μOR (Gz) (P35372 whole entry): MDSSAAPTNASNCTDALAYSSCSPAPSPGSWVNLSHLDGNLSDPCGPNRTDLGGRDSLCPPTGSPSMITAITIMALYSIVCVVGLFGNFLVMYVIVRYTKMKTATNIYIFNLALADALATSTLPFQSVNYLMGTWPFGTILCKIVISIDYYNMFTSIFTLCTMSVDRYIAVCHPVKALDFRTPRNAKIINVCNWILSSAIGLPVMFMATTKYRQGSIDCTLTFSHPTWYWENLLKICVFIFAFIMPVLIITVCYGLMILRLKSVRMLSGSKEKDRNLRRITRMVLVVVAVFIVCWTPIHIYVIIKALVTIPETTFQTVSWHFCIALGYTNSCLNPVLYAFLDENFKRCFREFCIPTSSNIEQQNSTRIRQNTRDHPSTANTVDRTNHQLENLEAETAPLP

μOR Q124^2.60A mutant [3] = molecular target: T3, μOR Q124^2.60A mutant (Homo sapiens, UniProt P35372, Q126A); format: cell-based
T3 sequence (P35372 whole entry Q126A): as the sequence (P35372 whole entry) above, with Q126A counted along it

wild type human μOR [4] = molecular target: T1, wild type human μOR; format: cell-based; remark: listed apart in the source
μOR Y326^7.43F mutant [5] = molecular target: T2, μOR Y326^7.43F mutant; format: cell-based; remark: listed apart in the source
mice = conditions: mouse, in vivo; cited from earlier work
μOR Q124^2.60A mutant [6] = molecular target: T3, μOR Q124^2.60A mutant; format: cell-based; remark: listed apart in the source
[7] = molecular target: human μOR (β-arrestin-1, β-arrestin-2) (Homo sapiens, UniProt P35372); format: cell-based
Sequence of human μOR (β-arrestin-1, β-arrestin-2) (P35372 whole entry): as the sequence (P35372 whole entry) above

human μOR = human μOR (Homo sapiens, UniProt P35372); format: cell-based
Sequence of human μOR (P35372 whole entry): as above

T2 sequence (P35372 whole entry Y328F): as the sequence (P35372 whole entry) above, with Y328F counted along it
T1 sequence (P35372 whole entry): as the sequence (P35372 whole entry) above
Sequence of human μOR (GoB) (P35372 whole entry): as above

CC[C@@H]1CN2CC[C@]3(Nc4cccc(OC)c4C3=O)[C@@H]2C[C@@H]1/C(=C\OC)C(=O)OC [MP, Mitragynine pseudoindoxyl]
EC50 (human μOR (GoB)): 3.2 nM
potency in G protein dissociation assays (wild type human μOR [1]): as potent as DAMGO
reduction of maximal Gi1 activation by the Y326F mutation (μOR Y326^7.43F mutant [2]): 68%
EC50 (human μOR (Gz)): 0.9 nM
arrestin recruitment at the Q124A mutant (μOR Q124^2.60A mutant [3]): completely abolishes
recruitment of β-arrestins (wild type human μOR [4]): very little detectable activity
reduction of maximal β-arrestin 2 recruitment by the Y326F mutation (μOR Y326^7.43F mutant [5]): eliminated detectable
development of antinociceptive tolerance (mice): much more slowly
potency relative to morphine (mice): approximately ten-fold more potent
respiratory depression (mice): did not cause respiratory depression
reduction of maximal Gi response by the Q124A mutation (μOR Q124^2.60A mutant [6]): more than half
recruitment of β-arrestins [7]: no detectable recruitment
efficacy at Gi/o/z subtypes compared to DAMGO (human μOR): partial agonist
potency spread across G protein subtypes (human μOR): ~ 3 fold
